Results: patent US9018175B2 (Takeda GmbH, priority 2009, dated 2015)

How the values were obtained:
human PDE5 = target: T1, human PDE5 (Homo sapiens, UniProt O76074); assay: Inhibition of PDE5 activity (SPA, [3H]cGMP, platelet lysate); type: biochemical; details: PDE5 from human platelet lysate; values given as bins; read-out: PDE5A inhibitory values measured as −logIC50 (converted)
T1 construct: from tissue; host or cells: human platelets from fresh donor blood (10,000 g supernatant of sonicated platelets)
Description: As a source for human PDE5, platelets are used. For that purpose, 150 ml fresh blood from human donors anticoagulated with citrate [final concentration 0.3% (w/v)] is centrifuged at 200 g for 10 min to obtain the so-called platelet-rich-plasma (PRP) as a supernatant. 1/10 volume of ACD solution (85 mM Na3-citrate, 111 mM D-glucose, 71 mM citric acid, pH 4.4) is added to 9/10 volume of PRP. After centrifugation (1,400 g, 10 min) the cell pellet is resuspended in 3 ml homogenization buffer (NaCl 140 mM, KCl 3.8 mM, EGTA (ethylene glycol tetraacetic acid) 1 mM, MgCl2 1 mM, Tris-HCl 20 mM, beta-mercaptoethanol 1 mM, pH 8.2) plus protease-inhibitor mix giving rise to the final concentrations of 0.5 mM Pefablock (Roche), 10 μM Leupeptin, 5 μM Trypsininhibitor, 2 mM Benzamidin and 10 μM Pepstatin A. The suspension is sonified and thereafter centrifuged for 15 min at 10,000 g. The resulting supernatant (platelet lysate) is used for enzymatic testings.
PDE5 activities were measured in a 96-well platform using SPA (scintillation proximity assay) yttrium silicate beads (RPNQ1050 from GE Healthcare). In a first step the PDE activity operates hydrolysis of either [^3H] cGMP (substrate) into [^3H] 5′GMP. In a second step substrate and product are distinguished following addition of SPA yttrium silicate beads. Indeed, in the presence of zinc sulphate the linear [^3H] […] Close proximity of bound [^3H] […] The test volume is 100 pl and contains 20 mM Tris buffer (pH 7.4), 0.1 mg of BSA (bovine serum albumin)/ml, 5 mM Mg^2+, 1 μM motapizone (PDE3 Inhibitor), 10 nM PDE2 inhibitor 2-(3,4-dimethoxybenzyl)-7-[(1R,2R)-2-hydroxy-1-(2-phenylethyl)propyl]-5-methylimidazo[5,1-f][1,2,4]triazin-4(3H)-one, […] (cyclic guanosine monophosphate) (including about 50,000 cpm of [3H]cGMP as a tracer), 1 pl of the respective compound dilution in dimethylsulfoxide (DMSO) and sufficient PDE5-containing platelet lysat (10,000, g supernatant, see above) to ensure that 10-20 wt % of the cGMP is converted under the said experimental conditions. […] After a preincubation of 5 min at 37° C., the reaction is started by adding the substrate (cGMP) and the assay is incubated for a further 15 min; after that, it is stopped by adding SPA beads (50 pl). In accordance with the manufacturer's instructions, the SPA beads had previously been resuspended in water, but are then diluted 1:3 (v/v) in water; the diluted solution also contains 3 mM […]3-isobutyl-1-methylxanthine (IBMX) to ensure a complete PDE activity stop. After the beads have been sedimented (>30 min), the MTP's are analyzed in commercially available luminescence detection devices. The corresponding IC50 values of the compounds for the inhibition of PDE activity are determined from the concentration-effect curves by means of non-linear regression.

PDE4B1 = target: T2, PDE4B1 (Homo sapiens, UniProt Q07343); assay: Inhibition of PDE4B1 activity (SPA, [3H]cAMP); type: biochemical; details: recombinant PDE4B1 expressed in SF21 cells; 0.5 pM [sic] cAMP; values given as bins; read-out: PDE4B1 inhibitory values measured as −logIC50 (converted)
T2 construct: made in house; host or cells: SF21 insect cells (baculovirus; pCR-Bac vector)
T2 sequence (Q07343 whole entry): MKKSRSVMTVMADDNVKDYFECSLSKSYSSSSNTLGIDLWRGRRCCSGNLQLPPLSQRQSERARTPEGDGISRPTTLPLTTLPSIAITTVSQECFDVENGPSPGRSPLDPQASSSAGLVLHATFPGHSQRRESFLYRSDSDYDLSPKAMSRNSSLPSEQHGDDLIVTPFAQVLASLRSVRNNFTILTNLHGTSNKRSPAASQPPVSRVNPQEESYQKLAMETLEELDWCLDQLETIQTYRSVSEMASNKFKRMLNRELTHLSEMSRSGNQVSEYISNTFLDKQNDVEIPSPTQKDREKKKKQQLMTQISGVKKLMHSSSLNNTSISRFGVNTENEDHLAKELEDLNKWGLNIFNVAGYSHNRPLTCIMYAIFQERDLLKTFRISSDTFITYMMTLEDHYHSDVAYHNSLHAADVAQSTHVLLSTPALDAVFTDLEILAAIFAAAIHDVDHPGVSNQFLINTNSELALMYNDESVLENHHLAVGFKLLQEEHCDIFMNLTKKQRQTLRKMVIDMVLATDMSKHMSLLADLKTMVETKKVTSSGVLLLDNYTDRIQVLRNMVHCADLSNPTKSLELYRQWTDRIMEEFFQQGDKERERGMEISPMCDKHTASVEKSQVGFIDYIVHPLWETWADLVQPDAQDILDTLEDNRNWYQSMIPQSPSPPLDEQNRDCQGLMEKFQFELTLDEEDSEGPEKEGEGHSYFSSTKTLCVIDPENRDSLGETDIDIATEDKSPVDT
Description: The PDE4B1 (GB no. L20966) was a gift of Prof. M. Conti (Stanford University, USA). It was amplified from the original plasmid (pCMV5) via PCR with primers Rb18 (5′-[…]-3′) and Rb10 (5′-[…]-3′) and cloned into the pCR-Bac vector (Invitrogen, Groningen, NL).
The recombinant baculovirus was prepared by means of homologous recombination in SF9 insect cells. The expression plasmids were cotransfected with Baculo-Gold DNA (Pharmingen, Hamburg) using a standard protocol (Pharmingen, Hamburg). Wt virus-free recombinant virus supernatants were selected using plaque assay methods. After that, high-titre virus supernatants were prepared by amplifying 3 times. PDE4B1 was expressed in SF21 cells by infecting 2×10^6 cells/ml with an MOI (multiplicity of infection) between 1 and 10 in the serum-free medium Insect Express Sf9-S2 (PAA, Pasching, Austria). The cells were cultured at 28° C. for 48-72 hours, after which they were pelleted for 5-10 min at 1000×g and 4° C.
The SF21 insect cells were resuspended, at a concentration of approx. 10^7 cells/ml, in ice-cold (4° C.) homogenization buffer (20 mM Tris, pH 8.2, containing the following additions: 140 mM NaCl, 3.8 mM KCl, 1 mM EGTA, 1 mM MgCl2, 10 mM e-mercaptoethanol, 2 mM benzamidine, 0.4 mM Pefablock, 10 pM leupeptin, 10 pM pepstatin A, 5 pM trypsin inhibitor) and disrupted by ultrasonication. The homogenate was then centrifuged for 10 min at 1000, g and the supernatant was stored at −80° C. until subsequent use (see below). The protein content was determined by the Bradford method (BioRad, Munich) using BSA as the standard.
PDEB1 activities were measured in a 96-well platform using SPA (scintillation proximity assay) yttrium silicate beads (RPNQ1050 from GE Healthcare). In a first step the PDE activity operates hydrolysis of either [^3H] cAMP (substrate) into [^3H] 5′AMP. In a second step substrate and product are distinguished following addition of SPA yttrium silicate beads. Indeed, in the presence of zinc sulphate the linear [^3H] […] Close proximity of bound [^3H] […] The test volume is 100 pl and contains 20 mM Tris buffer (pH 7.4), 0.1 mg/ml of BSA, 5 mM Mg^2+, […] (including about 50,000 cpm of [3H]cAMP), 1 pl of the respective substance dilution in DMSO and sufficient recombinant PDE (1000, g supernatant, see above) to ensure that 10-20% of the cAMP is converted under the said experimental conditions. […] After a preincubation of 5 min at 37° C., the reaction is started by adding the substrate (cAMP) and the assays are incubated for a further 15 min; after that, they are stopped by adding SPA beads (50 pl). In accordance with the manufacturer's instructions, the SPA beads had previously been resuspended in water, but were then diluted 1:3 (v/v) in water; the diluted solution also contains 3 mM IBMX to ensure a complete PDE activity stop. After the beads have been sedimented (>30 min), the MTP's are analyzed in commercially available luminescence detection devices. The corresponding IC50 values of the compounds for the inhibition of PDE4B1 activity are determined from the concentration-effect curves by means of non-linear regression.

IC50 (human PDE5) | IC50 (PDE4B1) | Structure (SMILES)
< 10 nM | 1 to 10 nM | CCOc1cc2c(cc1OC)C(c1ccc(C(=O)N3CCC(n4c(=O)c5sc(-c6ccccc6)cc5n(Cc5cnc(C)s5)c4=O)CC3)cc1)=N[C@@H]1CCSC[C@H]21 [Example 20, 3-[1-({4-[(4aR,10bR)-9-ethoxy-8-methoxy-3,4,4a,10b-tetrahydro-1H-thiopyrano[4,3-c]isoquinolin-6-yl]phenyl}carbonyl)piperidin-4-yl]-1-[(2-methyl-1,3-thiazol-5-yl)methyl]-6-phenylthieno[3,2-d]pyrimidine-2,4(1H,3H)-dione]
> 100 nM | < 1 nM | CCOc1cc2c(cc1OC)C(c1ccc(C(=O)N3CCC(n4c(=O)c5sc(-c6ccccc6)cc5n(Cc5ncn(C)n5)c4=O)CC3)cc1)=N[C@@H]1CCSC[C@H]21 [Example 52, 3-[1-({4-[(4aR,10bR)-9-ethoxy-8-methoxy-3,4,4a,10b-tetrahydro-1H-thiopyrano[4,3-c]isoquinolin-6-yl]phenyl}carbonyl)piperidin-4-yl]-1-[(1-methyl-1H-1,2,4-triazol-3-yl)methyl]-6-phenylthieno[3,2-d]pyrimidine-2,4(1H,3H)-dione]

Further lines, the compound ahead of its results:

Structure (SMILES) | IC50 (human PDE5) | IC50 (PDE4B1)
CCOc1cc2c(cc1OC)C(c1ccc(C(=O)N3CCC(n4c(=O)c5sc(-c6ccccc6)cc5n(Cc5nc(CSC)no5)c4=O)CC3)cc1)=N[C@@H]1CCSC[C@H]21 [Example 11, 3-[1-({4-[(4aR,10bR)-9-ethoxy-8-methoxy-3,4,4a,10b-tetrahydro-1H-thiopyrano[4,3-c]isoquinolin-6-yl]phenyl}carbonyl)piperidin-4-yl]-1-({3-[(methylsulfanyl)methyl]-1,2,4-oxadiazol-5-yl}methyl)-6-phenylthieno[3,2-d]pyrimidine-2,4(1H,3H)-dione] | < 10 nM | 1 to 10 nM
CCOc1cc2c(cc1OC)C(c1ccc(C(=O)N3CCC(n4c(=O)c5sc(-c6ccccc6)cc5n(Cc5nc(CC)ns5)c4=O)CC3)cc1)=N[C@@H]1CCSC[C@H]21 [Example 22, 3-[1-({4-[(4aR,10bR)-9-ethoxy-8-methoxy-3,4,4a,10b-tetrahydro-1H-thiopyrano[4,3-c]isoquinolin-6-yl]phenyl}carbonyl)piperidin-4-yl]-1-[(3-ethyl-1,2,4-thiadiazol-5-yl)methyl]-6-phenylthieno[3,2-d]pyrimidine-2,4(1H,3H)-dione] | 10 to 100 nM | 1 to 10 nM
CCCOCc1noc(Cn2c(=O)n(C3CCN(C(=O)c4ccc(C5=N[C@@H]6CCSC[C@@H]6c6cc(OCC)c(OC)cc65)cc4)CC3)c(=O)c3sc(-c4ccccc4)cc32)n1 [Example 51, 3-[1-({4-[(4aR,10bR)-9-ethoxy-8-methoxy-3,4,4a,10b-tetrahydro-1H-thiopyrano[4,3-c]isoquinolin-6-yl]phenyl}carbonyl)piperidin-4-yl]-6-phenyl-1-{[3-(propoxymethyl)-1,2,4-oxadiazol-5-yl]methyl}thieno[3,2-d]pyrimidine-2,4(1H,3H)-dione] | > 100 nM | < 1 nM
CCOc1cc2c(cc1OC)C(c1ccc(C(=O)N3CCC(n4c(=O)c5sc(-c6ccc(F)cc6)cc5n(Cc5nnn(CC)n5)c4=O)CC3)cc1)=N[C@@H]1CCSC[C@H]21 [Example 40, 3-[1-({4-[(4aR,10bR)-9-ethoxy-8-methoxy-3,4,4a,10b-tetrahydro-1H-thiopyrano[4,3-c]isoquinolin-6-yl]phenyl}carbonyl)piperidin-4-yl]-1-[(2-ethyl-2H-tetrazol-5-yl)methyl]-6-(4-fluorophenyl)thieno[3,2-d]pyrimidine-2,4(1H,3H)-dione] | < 10 nM | > 10 nM
CCOc1cc2c(cc1OC)C(c1ccc(C(=O)N3CCC(n4c(=O)c5sc(-c6ccccc6)cc5n(Cc5nnc(CC)o5)c4=O)CC3)cc1)=N[C@@H]1CCSC[C@H]21 [Example 4, 3-[1-({4-[(4aR,10bR)-9-ethoxy-8-methoxy-3,4,4a,10b-tetrahydro-1H-thiopyrano[4,3-c]isoquinolin-6-yl]phenyl}carbonyl)piperidin-4-yl]-1-[(5-ethyl-1,3,4-oxadiazol-2-yl)methyl]-6-phenylthieno[3,2-d]pyrimidine-2,4(1H,3H)-dione] | 10 to 100 nM | < 1 nM
